In series [1] the target is SMYD2 (Homo sapiens, UniProt Q9NRG4). Description: ITC binding assay EPZ033294/SMYD2. More on the design: Full length FLAG-SMYD2 and C-terminally Avi-tagged full length SMYD2 (SMYD2-Avi) were cloned into pFastbac vectors; FLAG (N); His tag with TEV cleavage site (N, cleaved yes); made in house; host or cells: Sf9 insect cells (baculovirus). Conditions: 25°C. As to the method: The assay buffer contained 20 mM Tris-HCl pH 8.0, 100 mM sodium chloride, 1 mM TCEP, 5% glycerol, 50 μM S-adenosylmethionine (SAM), and 0.1% DMSO. […] The assay background signal was generated by injecting compound into buffer in the absence of enzyme and subtracted from the experimental data. The binding isotherm was fitted using the single site model in the Origin software for data analysis (OriginLab, Northampton, MA).

The nature of series [2]: in vitro. Type of series: in vitro ADME, SD rats. Particulars: male, Sprague-Dawley.
Series [3] is described as follows: in vitro. Conditions: male, CD-1, mouse, microsomes, pH 7.4. Type of series: in vitro ADME, CD-1 mice.

Several values for one entry are separate records, joined by “and”; a condition that tells them apart may be missing. Identical values can stand only once. Counter-ions that a name gives are not always drawn.

Broadly, the Kd is the concentration at which binding is half-saturated. A word on the microsomal CLint: it is the rate of metabolic loss divided by the concentration. Higher therefore signals faster metabolism.

SMYD2, sequence (Q9NRG4 whole entry): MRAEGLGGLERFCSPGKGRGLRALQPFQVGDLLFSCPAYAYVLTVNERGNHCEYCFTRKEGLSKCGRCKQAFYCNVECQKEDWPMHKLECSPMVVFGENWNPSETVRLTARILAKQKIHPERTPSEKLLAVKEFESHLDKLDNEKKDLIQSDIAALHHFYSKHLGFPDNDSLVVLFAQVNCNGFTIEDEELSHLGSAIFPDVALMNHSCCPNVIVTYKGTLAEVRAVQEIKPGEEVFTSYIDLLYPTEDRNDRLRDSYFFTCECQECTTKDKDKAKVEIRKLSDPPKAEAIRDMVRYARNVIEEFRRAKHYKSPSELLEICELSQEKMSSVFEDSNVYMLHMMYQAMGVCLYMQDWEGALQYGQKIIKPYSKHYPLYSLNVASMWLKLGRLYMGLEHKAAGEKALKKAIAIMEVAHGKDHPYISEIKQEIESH

Regarding `O=C(NC1CN(Cc2cnn(Cc3ccc(Cl)cc3)c2)C1)c1cn(C2CC2)nn1` [EPZ033294], in series [1], the “stoichiometry of binding (N) by ITC” value is 0.7 ± 1 and 0.7. The Kd in series [1] (50 μM SAM, three test occasions, read-out: dissociation constant KD by ITC) is 8.3 ± 8.2 nM.
As for `NC1CCC(S(=O)(=O)N2C3CCC2CC(NC(=O)c2cc(C4CC4)on2)C3)CC1` [EPZ028862, N-((1R,3R,5S)-8-((1r,4R)-4-aminocyclohexylsulfonyl)-8-aza-bicyclo[3.2.1]octan-3-yl)-5-cyclopropylisoxazole-3-carboxamide hydrochloride], the “CLint measured with liver microsomes, Rat” value in series [2] (1 µM, pH 7.4) was 3.4 µL/min/mg microsomal protein. In addition, the microsomal CLint at 1 µM was below 3 µL/min/mg in series [2] (rat, microsomes, pH 7.4, CLint measured with liver microsomes) and 3.3 µL/min/mg in series [3].
